{"source": "patent US20070258970A1", "about": "“Methods for Inhibiting Hiv and Other Viral Infections by Modulating Ceramide Metabolism” (priority 2003, published 2007)", "key": {"HIV-1 gp160 (HXB2)": {"system": "HIV-1 gp160 (HXB2)", "test": "Cell-cell fusion assay (HeLa cells expressing HIV-1 gp160 with TMZ target cells, luciferase)", "conditions": "pretreated target cells, alone or combined; FIG. 8B", "experimental": "Target TMZ cells were plated at 0.75×10^4 cells per well in a 96 well plate and treated with a 4-BPR compound for 48 hours with 5% CO2 in a humidified incubator. HeLa cells expressing HUV-1 gp160 (HXB2) in addition to gag, tat, rev and nef were then cocultured with target cells containing the tat inducible luciferase reporter cassette. Envelope and target cells were cocultivated at 37° C. for 7 hours. Luciferase activity was then measured using a Promega (Madison, Wis.) luciferase assay system kit. Briefly, the supernatants were removed and the cells were lysed with Steady Glo luciferase assay system. The light intensity of each well was measured on a Reporter luminometer. Mock-infected cells were used to determine background luminescence. All infectivity assays were performed in duplicate.\nBriefly, HeLa cells expressing HIV-1 gp160 (HXB2) in addition to gag, tat, rev and nef were cocultured with CD4 positive target cells containing the tat inducible luciferase reporter cassette. […] Envelope and target cells were cocultivated at 37° C. for 7 hours following which the cells were lysed and luciferase activity quantitated."}, "ceramide [1]": {"system": "ceramide", "test": "Ceramide quantitation by [3H]sphingosine incorporation in HeLa-derived target cells", "type": "cell-based"}, "CCR5": {"system": "CCR5", "test": "Flow cytometry of cell surface CCR5 on TMZ cells", "type": "cell-based", "procedure": "(§1) TMZ cells, harvested with trypsin-EDTA in PBS, were centrifuged at 450×g and resuspended at 10^6 cells/ml in PBS-5% FBS-5% normal mouse serum. After incubation for 15 min at room temperature, the cells were washed twice in PBS-0.1% bovine serum albumin and resuspended in 100 μl of PBS-5% FBS-5% normal mouse serum. 20 μl of Phycoerythrin (PE)-conjugated mouse immunoglobulin G (IgG) anti-CD4, PE-conjugated mouse IgG anti-CXCR4, or PE-conjugated mouse IgG anti-CCR5, from Becton Dickenson (San Jose, Calif.) was then added to each sample. Cells were incubated at 4° C. for 1 hour and washed twice in PBS-0.1% BSA. Samples were fixed in PBS-1% paraformaldehyde and resuspended in 1 ml of PBS to be read by a FACScalibur instrument (Becton Dickinson, San Jose, Calif.) at 10,000 events/sample with respect to unlabeled cells.\n(§2) Increasing ceramide concentrations is thought to perturb membrane properties due to the hydrophobic nature of this lipid and the tendency to self aggregate. The possible consequences of membrane altering properties on the cell surface expression of the main HIV receptors, CD4, X4 and R5, was investigated. […] CD4 expression decreases in a dose dependent manner from a control level of 100% to levels of 70%, 57% and 27% following treatment with 2, 5 and 10 μM of a 4-HPR compound respectively."}, "CD4": {"system": "CD4", "test": "Flow cytometry of cell surface CD4 on TMZ cells", "type": "cell-based", "procedure": "as §1, §2"}, "CXCR4": {"system": "CXCR4", "test": "Flow cytometry of cell surface CXCR4 on TMZ cells", "type": "cell-based", "conditions": "2 μM", "procedure": "as §1, §2"}, "VSV pseudotyped HIV-1": {"system": "VSV pseudotyped HIV-1", "type": "cell-based"}, "HIV-1 [2]": {"system": "HIV-1", "test": "HIV-1 infection of primary monocyte derived macrophages", "type": "cell-based", "conditions": "low uM concentrations, pretreated 2 days"}, "Sendai virus": {"system": "Sendai virus", "test": "R18 fluorescence dequenching viral fusion assay", "conditions": "increasing concentrations, 37° C., pH7; FIG. 9", "experimental": "To further probe how ceramide accumulation might inhibit viral fusion, viral fusion was monitored using a well-established octadecyl rhodamine (R18) fluorescence dequenching (R18-fdq) assay. In this assay system R18-labeled Sendai virus was incubated with control or a 4-HPR compound treated cells for 30 min at 4° C. to allow for virus binding. Small aliquots of virus-cell complexes were added to a stirred cuvette at 37° C. containing 2 ml buffer at pH7. Fluorescence increases were recorded with a 1 sec time resolution in a SLM8000 spectrofluorimeter (SLMInstruments, Urbana, Ill.). […] This increase in fluorescence reflects dequenching of R18 upon the merging of viral and cell membranes."}, "ceramide [3]": {"system": "ceramide", "test": "Ceramide level in monocyte derived macrophages", "conditions": "5 uM"}, "HIV-1 [4]": {"system": "HIV-1", "type": "cell-based"}, "cells": {"system": "cells", "test": "Apoptotic effects on the cells by annexin 5 staining / toxicity", "type": "cell-based", "conditions": "at the low concentrations that inhibit HIV-1"}}}
{"compound": "CC1=C(/C=C/C(C)=C/C=C/C(C)=C/C(=O)Nc2ccc(O)cc2)C(C)(C)CCC1", "note": "[4-HPR compound, N-(4-hydroxyphenyl)retinamide]", "values": [{"measurement": "inhibition of fusion", "setting": "HIV-1 gp160 (HXB2)", "result": 20, "unit": "%"}, {"measurement": "increase in ceramide", "setting": "ceramide [1]; HeLa cells, 5 uM", "result": 1.7, "unit": "fold"}, {"measurement": "CCR5 expression", "setting": "CCR5; 2 μM", "result": 60, "unit": "%"}, {"measurement": "CCR5 expression", "setting": "CCR5; 5 μM", "result": 30, "unit": "%"}, {"measurement": "CCR5 expression", "setting": "CCR5; 10 μM", "result": 7, "unit": "%"}, {"measurement": "CD4 expression (control level 100%)", "setting": "CD4; 2 μM", "result": 70, "unit": "%"}, {"measurement": "CD4 expression (control level 100%)", "setting": "CD4; 5 μM", "result": 57, "unit": "%"}, {"measurement": "CD4 expression (control level 100%)", "setting": "CD4; 10 μM", "result": 27, "unit": "%"}, {"measurement": "CXCR4 expression", "setting": "CXCR4", "result": 18, "unit": "%"}, {"measurement": "infectivity of VSV pseudotyped HIV-1", "setting": "VSV pseudotyped HIV-1", "result": "not impaired"}, {"measurement": "HIV-1 infection of macrophages, CCR5 tropic isolate (BaL)", "setting": "HIV-1 [2]; FIG. 6A", "result": "Infection inhibition was observed"}, {"measurement": "HIV-1 infection of macrophages, primary isolate", "setting": "HIV-1 [2]; FIG. 6B", "result": "Infection inhibition was observed"}, {"measurement": "inhibition of Sendai virus fusion (R18 fluorescence dequenching)", "setting": "Sendai virus", "result": "dose dependent inhibition"}, {"measurement": "increase in ceramide", "setting": "ceramide [3]", "result": 1.12, "unit": "fold"}, {"measurement": "inhibition of HIV-1 isolates", "setting": "HIV-1 [4]; X4 (NL4-3, MN), R5 (Bal, JRCSF) and primary isolates, FIG. 3b", "result": "dose-dependent inhibition"}, {"measurement": "toxicity", "setting": "cells", "result": "minimal toxicity"}]}
{"compound": "CCCCCCCCCCCCC/C=C/[C@@H](O)[C@H](CO)NC(=O)CCCCCCCCCCCCCCC", "note": "[C16, C16 ceramide]", "values": [{"measurement": "inhibition of HIV infection", "setting": "HIV-1 [4]; pretreatment with 1 μM lipid for 10 minutes at 37° C., FIG. 5", "result": "approximately 60%"}]}
{"compound": "CCCCCCCCCCCCCCCC(=O)NC(CN1CCOCC1)C(O)c1ccccc1", "note": "(centres unmarked) [PPMP, 1-phenyl-2-hexadecanoylamino-3-morpholino-1-propanol]", "values": [{"measurement": "inhibition of fusion", "setting": "HIV-1 gp160 (HXB2)", "result": "ineffective"}]}
{"compound": "sphingomyelinase", "values": [{"measurement": "ceramide levels following enzymatic activity", "setting": "ceramide [1]; sphingomyelinase pretreated cells", "result": "increased"}, {"measurement": "inhibition of HIV-1 infection", "setting": "HIV-1 [4]", "result": "60-70%"}]}
